Where a SMILES comes first, the peptide text is derived from it.
Test: Cytotoxicity against mouse L1210/0 cells after 48 hrs
Format: cell-based
Settings: Mus musculus, L1210/0, 48 h

| SMILES | IC50 |
| --- | --- |
| O=C1NCN([C@@H]2O[C@H](COP3OCCC(F)(F)O3)[C@@H](O)C2=O)C=C1F (stereo partly drawn) | 0.01 µM |
| Nc1ccn([C@@H]2O[C@H](CO)[C@H](F)[C@@H]2O)c(=O)n1 | 159 µM |
| Nc1ncnc2c1ncn2C[C@@H]1C[C@H](O)c2ccccc21 | > 200 µM |
| CCC#Cc1cn([C@@H]2O[C@H](CO)[C@@H](O)[C@@H]2O)c(=O)[nH]c1=O | > 200 µM |
| C[C@H](O)C1CC(CCn2nnc3c(N)ncnc32)C1(C)C (stereo partly drawn) | > 200 µM |
| O=c1ccn(COCCO)c(=O)[nH]1 | > 200 µM |
| Nc1nc(Cl)c2nnn([C@H]3CCCC[C@H]3CO)c2n1 | 95.5 µM |
| CC1(C)C(CO)CC1Cn1cnc2c(N)nc(N)nc21 (stereo not drawn) | > 200 µM |
| CC(=O)OCCOCn1cnc2c(Cl)nc(I)nc21 | 8.6 µM |
| O=C1O/C(=C\Cn2cc(C(F)(F)F)c(=O)[nH]c2=O)C(O)=C1O | > 200 µM |
| C[C@H](O)C1CC(CCn2cnc3c(=O)[nH]cnc32)C1(C)C (stereo partly drawn) | > 200 µM |
| CC1(C)[C@@H](Cn2cnc3c(N)nc(N)nc32)CC[C@@]1(C)CO | > 200 µM |
| OC[C@H]1C[C@@H](Cn2cnc3c(O)ncnc32)c2ccccc21 | > 200 µM |
| O=c1[nH]cnc2c1nnn2CC1CCC(CO)C1 (stereo not drawn) | > 200 µM |
| CC1(C)[C@H](CCO)C[C@@H]1n1cnc2c(Cl)nc(N)nc21 | 105 µM |
| CC1(C)[C@@H](CO)CC[C@@]1(C)Cn1cnc2c(=O)[nH]cnc21 | > 200 µM |
| Nc1nc2c(nc(Cl)n2COCCO)c(=O)[nH]1 | > 200 µM |
| COC1=C(OC)/C(=C/C(n2cnc3c(N)ncnc32)P(=O)(O)O)OC1=O (stereo not drawn) | 11.4 µM |
| COc1c(C)c(C)c(OC)c(-c2cn([C@H]3C[C@H](O)[C@@H](CO)O3)c(=O)[nH]c2=O)c1C | > 200 µM |
| O=c1[nH]c(=O)n(COCCO)cc1Cl | > 200 µM |
| CC1(C)[C@@H](Cn2nnc3c(N)nc(N)nc32)CC[C@@]1(C)CO | > 200 µM |
| Nc1ccn(C[C@@H]2C[C@H](CO)c3ccccc32)c(=O)n1 | > 200 µM |
| O=C(/C=C/c1cc(=O)[nH]c(=O)n1COCCO)c1ccccc1 | 43.3 µM |

| SMILES | IC50 |
| --- | --- |
| COc1ccccc1-c1ncnc2c1ncn2C[C@@H]1C[C@H](O)c2ccccc21 | > 200 µM |
| Nc1nc(O)c2ncn([C@H]3CCCC[C@H]3CO)c2n1 | > 200 µM |
| O=c1[nH]c(=O)n(C2C[C@@H](CO)[C@@H](CO)C2)cc1I (stereo partly drawn) | > 200 µM |
| Nc1ncnc2c1ncn2C1CC(O)C(/C=N/O)O1 (stereo not drawn) | 17.4 µM |
| Nc1nc(Cl)c2nnn(C[C@H]3CC[C@@H](CO)C3)c2n1 | 170 µM |
| O=c1[nH]c(=O)n(C[C@H]2CCC[C@H]2CO)cc1I | > 200 µM |
| CCOc1ncnc2c1ncn2C[C@@H]1C[C@H](CO)c2ccccc21 | > 200 µM |
| O=c1[nH]c(=O)n(COCCO)cc1Br | > 200 µM |
| CC1(C)[C@@H](CO)CC[C@@]1(C)Cn1cc(Br)c(=O)[nH]c1=O | > 200 µM |
| Nc1nc(N)c2ncn(CCOCP(=O)(O)O)c2n1 [PMEDAP] | 1.73 µM |
| Nc1nc(=O)ccn1COCCO | > 200 µM |
| C[C@H](O)C1CC(CCn2cnc3c(N)ncnc32)C1(C)C (stereo partly drawn) | > 200 µM |
| CC1(C)[C@@H](CCCO)C[C@H]1n1cnc2c(=O)[nH]c(N)nc21 | > 200 µM |
| O=c1[nH]c(=O)n([C@H]2C[C@H](O)[C@@H](CO)O2)cc1/C=C/Br [BRIVUDINE] | 80.8 µM |
| CC(=O)OC(C)Cn1cnc2c(Cl)nc(F)nc21 (stereo not drawn) | 37 µM |
| Nc1ncnc2c1ncn2[C@@H]1O[C@H](C=O)C[C@@H]1O | > 200 µM |
| CC1(C)[C@@H](CO)CC[C@@]1(C)Cn1nnc2c(=O)[nH]cnc21 | > 200 µM |
| COc1ccc(C(=O)/C=C/c2cc(O)nc(O)n2)cc1 | > 200 µM |
| CC(=O)OC(C)Cn1cnc2c(N)nc(I)nc21 (stereo not drawn) | > 200 µM |
| O=C1O/C(=C\Cn2cc(Cl)c(=O)[nH]c2=O)C(OCc2ccccc2)=C1OCc1ccccc1 | 12.2 µM |
| O=c1ccn(C[C@@H]2CCC[C@H]2CO)c(=O)[nH]1 | > 200 µM |
| Nc1ncnc2c1ncn2C[C@@H]1CCC[C@H]1CO | > 200 µM |
| O=c1ccn(C[C@@H]2C[C@H](CO)c3ccccc32)c(=O)[nH]1 | > 200 µM |

| SMILES | IC50 |
| --- | --- |
| C#Cc1cn([C@H]2C[C@H](O)[C@@H](CO)O2)c(=O)[nH]c1=O | 0.36 µM |
| COCC#Cc1cn([C@H]2C[C@H](O)[C@@H](CO)O2)c(=O)[nH]c1=O | > 200 µM |
| CC(=O)OC(C)Cn1cnc2c(Cl)nc(N)nc21 (stereo not drawn) | > 200 µM |
| O=c1ccn(CC2CCC(CO)C2)c(=O)[nH]1 (stereo not drawn) | > 200 µM |
| O=c1[nH]c(=O)n([C@H]2C[C@H](O)[C@@H](CO)O2)cc1C#Cc1ccccc1 | > 200 µM |
| CCC#Cc1cn([C@H]2C[C@H](O)[C@@H](CO)O2)c(=O)[nH]c1=O | > 200 µM |
| OCCOCn1cnc2c(O)ncnc21 | > 200 µM |
| CSc1cn([C@H]2C[C@H](O)[C@@H](CO)O2)c(=O)[nH]c1=O | > 200 µM |
| OC[C@@H]1[C@@H]2COC[C@H]2C[C@H]1n1cnc2c(Cl)ncnc21 | > 200 µM |
| Nc1nc2c(ncn2COCCO)c(=O)[nH]1 [ACYCLOVIR] | 57.7 µM |
| CCCCCCc1cn([C@H]2C[C@H](O)[C@@H](CO)O2)c(=O)[nH]c1=O | > 200 µM |
| Nc1nc(Cl)c2ncn(COCCO)c2n1 | > 200 µM |
| O=C1O/C(=C/Cn2cnc3ncnc(Cl)c32)C(OCc2ccccc2)=C1OCc1ccccc1 | 4.1 µM |
| CC1=C(C)C(=O)C(c2cn([C@H]3C[C@H](O)[C@@H](CO)O3)c(=O)[nH]c2=O)=C(C)C1=O | 174 µM |
| O=C1O/C(=C\Cn2ccc(=O)[nH]c2=O)C(Cc2ccccc2)=C1O | > 200 µM |
| CC(C)C[C@H](NC(=O)[C@@H]1CCCN1)C(=O)NCC(N)=O (H-Pro-Leu-Gly-NH2) | > 200 µM |
| CCCC/C=C\c1cn([C@H]2C[C@H](O)[C@@H](CO)O2)c(=O)[nH]c1=O | > 200 µM |
| O=c1ccn([C@@H]2C[C@H](CO)C[C@@H]2CO)c(=O)[nH]1 | > 200 µM |
| CC1(C)C(CO)CC1Cn1nnc2c(N)nc(N)nc21 (stereo not drawn) | > 200 µM |
| COC1=C(OC)C(O)(CCn2cnc3c(N)ncnc32)OC1=O (stereo not drawn) | > 200 µM |
| C#C[C@H]1O[C@@H](n2cnc3c(N)ncnc32)[C@@H](O)[C@H]1O | 1.2 µM |
| N#CSc1cn([C@H]2C[C@H](O)[C@@H](CO)O2)c(=O)[nH]c1=O | 78.9 µM |
| Cc1cn(C[C@@H]2C[C@H](CO)c3ccccc32)c(=O)[nH]c1=O | > 200 µM |

| SMILES | IC50 |
| --- | --- |
| COc1ncnc2c1ncn2C[C@@H]1C[C@H](CO)c2ccccc21 | > 200 µM |
| OC[C@@H]1C[C@H](Cn2cnc3c(Cl)ncnc32)c2c(-c3ccccc3)nnc(-c3ccccc3)c21 | > 200 µM |
| O=c1ccn([C@@H]2O[C@H](CO)[C@H](F)[C@@H]2O)c(=O)[nH]1 | > 200 µM |
| CC(O)Cn1cnc2c(S)nc(F)nc21 (stereo not drawn) | > 200 µM |
| CCCC#Cc1cn([C@H]2C[C@H](O)[C@@H](CO)O2)c(=O)[nH]c1=O | > 200 µM |
| Cc1cn(COCCO)c(=O)[nH]c1=O | > 200 µM |
| O=c1[nH]c(=O)n([C@H]2C[C@H](O)[C@@H](CO)O2)cc1C#CCO | > 200 µM |
| O=c1[nH]cc(F)c(=O)[nH]1 [FLUOROURACIL] | 0.31 µM |
| O=c1[nH]cnc2c1nnn2C[C@H]1CCC[C@H]1CO | > 200 µM |
| OC[C@@H]1C[C@H](Cn2cnc3c(NC4CC4)ncnc32)c2c(-c3ccccc3)nnc(-c3ccccc3)c21 | > 200 µM |
| Nc1ncnc2c1ncn2CC1CCC(CO)C1 (stereo not drawn) | > 200 µM |
| O=c1[nH]c(=O)n([C@H]2C[C@H](O)[C@@H](CO)O2)cc1/C=N/O | 15.5 µM |
| CC(=O)OCCOCn1cnc2c(Cl)nc(Cl)nc21 | 39.3 µM |
| COC1=C(OCc2ccc([N+](=O)[O-])cc2)C(=O)O/C1=C\Cn1cnc2c(Cl)ncnc21 | 13.6 µM |
| O[C@H]1C[C@@H](Cn2cnc3c(Cl)ncnc32)c2ccccc21 | > 200 µM |
| CCO/N=C\C1OC(n2cnc3c(N)ncnc32)C(O)C1O (stereo not drawn) | > 200 µM |
| Nc1nc2c(nc(N)n2COCCO)c(=O)[nH]1 | > 200 µM |
| Nc1nc2c(nc(O)n2COCCO)c(=O)[nH]1 | > 200 µM |
| CC(=O)OC(C)Cn1cnc2c(Cl)nc(I)nc21 (stereo not drawn) | 13 µM |
| Nc1ncnc2c1ncn2C1OC(/C=N/O)CC1O (stereo not drawn) | > 200 µM |
| CC1=C(C)C(=O)C(c2cn([C@H]3C[C@H](O)[C@@H](CO)O3)c(=O)[nH]c2=O)=CC1=O | 112 µM |
| COc1ccccc1C(=O)/C=C/c1cc(=O)[nH]c(=O)n1COCCO | 15.2 µM |
| O=C1O/C(=C\Cn2cc(C(F)(F)F)c(=O)[nH]c2=O)C(OCc2ccccc2)=C1OCc1ccccc1 | 2 µM |

| SMILES | IC50 |
| --- | --- |
| CCCCCC#Cc1cn([C@H]2C[C@H](O)[C@@H](CO)O2)c(=O)[nH]c1=O | > 200 µM |
| Nc1ccn([C@@H]2O[C@H](CO)[C@@H](O)[C@@H]2O)c(=O)n1 [CYTARABINE] | 0.7 µM |
| O=C1OC(=CCn2cnc3c(-n4cccc4)ncnc32)C(OCc2ccccc2)=C1OCc1ccccc1 | 110 µM |
| CC1(C)C(CO)CC1Cn1cnc2c(=O)[nH]c(N)nc21 (stereo not drawn) | > 200 µM |
| O=c1[nH]c(=O)n(COCCO)cc1F | > 200 µM |
| Nc1nc2c(ncn2[C@@H]2O[C@H](CO)[C@H](F)[C@@H]2O)c(=O)[nH]1 | 17.5 µM |
| O=c1[nH]c(=O)n([C@@H]2CCC[C@H]2CO)cc1I | > 200 µM |
| C[C@@]1(CO)O[C@H](c2ccc(N)cc2F)C[C@@H]1O | > 200 µM |
| O=C1OC(C(O)Cn2cc(C(F)(F)F)c(=O)[nH]c2=O)C(OCc2ccccc2)=C1OCc1ccccc1 (stereo not drawn) | 50.1 µM |
| O=c1[nH]c(=O)n([C@H]2C[C@H](O)[C@@H](CO)O2)cc1O | > 200 µM |
| C[S+]([O-])c1cn([C@H]2C[C@H](O)[C@@H](CO)O2)c(=O)[nH]c1=O (stereo partly drawn) | > 200 µM |
| CC(C)(C)C#Cc1cn([C@H]2C[C@H](O)[C@@H](CO)O2)c(=O)[nH]c1=O | > 200 µM |
| [N-]=[N+]=NCc1cn([C@H]2C[C@H](O)[C@@H](CO)O2)c(=O)[nH]c1=O | 124 µM |
| Nc1ncnc2c1ncn2[C@@H]1O[C@H](CO)[C@H](F)[C@@H]1O | 5.94 µM |
| CC1(C)[C@@H](Cn2ccc(=O)[nH]c2=O)CC[C@@]1(C)CO | > 200 µM |
| Nc1ncnc2c1ncn2C[C@@H]1C[C@H](CO)c2ccccc21 | > 200 µM |
| O=c1[nH]cnc2c1ncn2C1CC(CO)C(CO)C1 (stereo not drawn) | > 200 µM |
| CC1(C)[C@@H](CCCO)C[C@H]1n1cnc2c(Cl)nc(N)nc21 | > 200 µM |
| Nc1nc2c(ncn2CCOCP(=O)(O)O)c(=O)[nH]1 [GS-438] | 0.57 µM |
| CC1(C)[C@@H](Cn2cnc3c(O)nc(N)nc32)CC[C@@]1(C)CO | > 200 µM |
| Nc1ncnc2c1ncn2[C@@H]1O[C@H](/C=C\Br)[C@H](O)[C@@H]1O | 104 µM |

Reference: ChEMBL document CHEMBL1142978, “Probing the anticancer activity of nucleoside analogues: a QSAR model approach using an internally consistent training set” (J Med Chem, 2007)
